Measurements: article PMC2215728 (The Journal of General Physiology, 1978)
Where two headings read alike, the source gives them in different places.

Assays:
[1] = tested on: everted segments of rat jejunum; assay: Influx of weak electrolytes into everted segments of rat jejunum in vitro; conditions: for Influx Jejunum: Table III; for Resistance Jejunum Unstirred layer: Table V, calculated as d/DSc; for Ratio of influx and nonionized concentration: J(1 + 10a)/C
[2] = tested on: everted segments of rat ileum; assay: Influx of weak electrolytes into everted segments of rat ileum in vitro; conditions: for Influx Ileum: Table III; for Resistance Ileum Unstirred layer: Table V, calculated as d/DSc
[3] = Table III, cited from earlier work
[4] = Partition in two-phase aqueous/organic solvent; assay type: physicochemical; conditions: heptane:aqueous partition of nonionized form
[5] = tested on: everted segments of rat ileum
[6] = tested on: everted segments of rat jejunum
[7] = 1 mM, pH 7.40, 1 min, 37C, mean SE (n)
[8] = Table I, everted rat jejunum, 1 mM solution, second weak electrolyte (10 mM): Benzylamine
[9] = Table I, everted rat jejunum, 1 mM solution, second weak electrolyte (10 mM): Pentanoic acid
[10] = Table I, everted rat jejunum, 1 mM solution, second weak electrolyte (10 mM): c-Hexylamine
[11] = Table I, everted rat jejunum, 1 mM solution, second weak electrolyte (10 mM): Benzoic acid
[12] = 0.1 mM solution, observed influx increased by a factor of 10
[13] = Table II, everted segments (region not stated), pH 7.4

Compound | Influx Jejunum [1, 7] [nmol.100mg dry wt-1.min-1] | Resistance Jejunum Unstirred layer [1] [cm-3.min.100 mg dry wt] | Influx Ileum [2, 7] [nmol.100mg dry wt-1.min-1] | Resistance Ileum Unstirred layer [2] | also measured
CC(C)N [2-Amino propane] | 6 | 1.47 | 4 | 1.54 cm-3.min.100 mg dry wt | pKa ([3]; ref Ref. 6): 10.63; ratio of kni Hept values for 2-amino-propane and propionic acid [4]: greater than 20
CC(=O)O [Acetic, acetic acid] | 0 |  | 3 |  | 
O=C(O)c1ccccc1 [Benzoic, Benzoic acid] | 17 |  | 15 |  | Influx [1, 8]: 19 nmol.100mg dry wt-1.min-1; Influx [1, 9]: 21 nmol.100mg dry wt-1.min-1; Influx [1, 10]: 17 nmol.100mg dry wt-1.min-1
NCc1ccccc1 [Benzylamine] | 220 | 1.92 | 155 | 2,02 cm-3.min.100 mg dry wt | Influx [1, 11]: 221 nmol.100mg dry wt-1.min-1; Influx [1, 10]: 211 nmol.100mg dry wt-1.min-1
CCCC(=O)O [Butyric] | 12 |  | 11 |  | 
CCCCCCCCCC(=O)O [Decanoic, decanoic acid] |  | 2.79 |  | 2.93 cm-3.min.100 mg dry wt | Influx Jejunum [1, 12]: 361 nmol.100mg dry wt-1.min-1; Influx Ileum [2, 12]: 158 nmol.100mg dry wt-1.min-1
CCCCCCCCCCN [Decylamine] |  | 2.78 |  |  | Influx Jejunum [1, 12]: 264 nmol.100mg dry wt-1.min-1
O=C(O)C(c1ccccc1)c1ccccc1 [Diphenylacetic] | 14 | 2.81 | 7 | 2.95 cm-3.min.100 mg dry wt | pKa ([3]; ref Ref. 6): 3.94
CCCCCCC(=O)O [Heptanoic] | 81 | 2.31 | 50 | 2.43 cm-3.min.100 mg dry wt | pKa ([3]; ref Ref. 6): 4.89
CCCCCC(=O)O [Hexanoic, HEXANOIC ACID] | 73 | 2.13 | 29 | 2.24 cm-3.min.100 mg dry wt | 
CN1C(=O)NC(=O)C(C)(C2=CCCCC2)C1=O (centres unmarked) [Hexobarbital] | 348 | 2.86 | 327 | 3.00 cm-3.min.100 mg dry wt | pKa ([3]; ref Bush (1)): 8.20
CCC(=O)C(CC(C)N(C)C)(c1ccccc1)c1ccccc1 (centres unmarked) [Methadone] | 272 | 3.74 | 259 | 3.93 cm-3.min.100 mg dry wt | 
C=CCN1CC[C@]23c4c5ccc(O)c4O[C@H]2C(=O)CC[C@@]3(O)[C@H]1C5 [Naloxone] | 286 | 3.38 | 263 |  | pKa ([3]; ref Taylor (11)): 6.93
CCCCCCCC(=O)O [Octanoic, Octanoic acid] | 147 | 2.47 | 56 | 2.60 cm-3.min.100 mg dry wt | Influx [1, 13]: 145; Influx ([1]; Table II, everted segments (region not stated), pH 7.9): 60; Influx ([1]; Table II, everted segments (region not stated), pH 8.4): 15
CCCCC(=O)O [Pentanoic, Pentanoic acid] | 22 | 1.95 | 18 | 2.05 cm-3.min.100 mg dry wt | Influx [1, 11]: 22 nmol.100mg dry wt-1.min-1; Influx [1, 8]: 18 nmol.100mg dry wt-1.min-1; Influx [1, 10]: 20 nmol.100mg dry wt-1.min-1
CCC1(c2ccccc2)C(=O)NC(=O)NC1=O [Phenobarbital] | 321 | 2.81 |  | 2.95 cm-3.min.100 mg dry wt | 
O=C(O)Cc1ccccc1 [Phenylacetic, PHENYLACETIC ACID] | 24 | 2.16 | 15 | 2.27 cm-3.min.100 mg dry wt | 
CCC(=O)O [Propionic, propionic acid] | 6 | 1.53 | 9 | 1.61 cm-3.min.100 mg dry wt | 
NC1CCCCC1 [c-Hexylamine] | 12 | 1.95 | 6 | 2.05 cm-3.min.100 mg dry wt | Influx [1, 11]: 9 nmol.100mg dry wt-1.min-1; Influx [1, 8]: 12 nmol.100mg dry wt-1.min-1; Influx [1, 9]: 9 nmol.100mg dry wt-1.min-1; Influx [1, 13]: 12; Ratio of influx and nonionized concentration ([1]; Table II, pH 7.4): 22; Ratio of influx and nonionized concentration ([1]; Table II, pH 7.9): 24; pKa ([3]; ref Ref. 6): 10.66
CCCCCCCO [heptanol] |  |  |  |  | influx of heptanol with pH of incubation saline ([1]; preliminary experiments, range of pH values 7.5-8.5): constant
CC(C)C(=O)O [iso-Butyric] | 10 | 1.75 | 13 | 1.84 cm-3.min.100 mg dry wt | 
CC(C)CC(=O)O [iso-Pentanoic] | 21 |  | 20 |  | Resistance Ileum Empirical [5]: 5.00x 101; Resistance Ileum Unstirred layer [5]: 2.05; Resistance Jejunum Empirical [6]: 4.76x 101; Resistance Jejunum Unstirred layer [6]: 1.95
